Columns and labels:
[1] = tested on: human cardiac fibroblasts; experiment: Cell-based inhibition assay of generation of procollagen I C-terminal propeptide (PICP), PICP ELISA; settings: Cardiac fibroblast; human cardiac fibroblasts, crowding media, 24 to 48 hr, PICP ELISA of media; read-out: pIC50, PICP cellular inhibition assay (converted)
Outline: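 Cardiac fibroblasts (passage ≤6) treated 24–48 h at 37 °C with compounds in ficoll crowding medium containing 100 μM ascorbic acid, DMSO <0.3%. PICP secreted into the medium was quantified by ELISA, normalised to untreated controls and fitted to log(inhibitor)–response to give pIC50.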

[2] = tested on: human cardiac fibroblasts; experiment: Cell-based inhibition assay of mature collagen deposition (immunostaining); settings: Cardiac fibroblast; human cardiac fibroblasts, crowding media, 24 to 48 hr, collagen I immunostaining normalized to nuclei; read-out: pIC50, mature collagen cellular inhibition assay (converted)
Protocol: Cell-Based Inhibition Assay of Generation of Procollagen I C-Terminal Propeptide (PICP) and Mature Collagen:
An adaptation of the collagen deposition assay described by Chen, C. Z. C., et al., British Journal of Pharmacology, 2009, 158, 1196-1209 was used to examine effect of compounds on procollagen I processing and collagen deposition. In the adapted assay, human cardiac fibroblasts were utilized. Processing of procollagen I was determined by a PICP ELISA assay and deposition of mature collagen was determined by immunostaining.
Human cardiac fibroblasts were cultured and maintained until passage 6 in FGM-3 media (Lonza, #CC-3132) in a 37° C. humidified incubator with 5% CO2. They were then seeded in 96-well black wall, clear bottom plates at 10,000 to 15,000 cells per well in eagle's minimum essential media (EMEM, ATCC #30-2003) containing 10% fetal bovine serum (FBS, Life Technologies #10082147), 1% Glutamax (Life Technologies #35050061) and 1% Penicillin and Streptomycin (Life Technologies #15070063). These cultures were placed in 37° C. incubator. The next day, media were removed by aspiration and cells were rinsed with phosphate buffered saline. Crowding media (also called ficoll media) was prepared by adding 112.5 mg/ml of ficoll70 and 75 mg/ml ficoll400 (GE healthcare #17-0310-10 and 17-0300-10, respectively), 100 μM ascorbic acid, 1% Glutamax and 1% Penicillin and Streptomycin to EMEM media. Test compounds (dissolved in DMSO) were diluted into crowding media and then added to the cells. Final concentration of DMSO in crowding media was less than 0.3%. Cells were treated for 24 to 48 hr in a 37° C. incubator. At the end of the treatment period, cell media were collected. The level of PICP in the media were determined by a PICP ELISA assay (Quidel #8003) following the manufacturer's protocol. Potencies of test compounds were calculated by fitting PICP levels, relative to untreated controls, to log (inhibitor) vs. response equation using Graphpad Prism software 5.0 and expressed as pIC50.
For some compounds, deposition of mature collagen was measured by immunostaining in addition to PICP levels. At the end of the treatment period, cells on culture plate were fixed with 100% methanol (prechilled to −20° C.) for 10 min. Then the cells were immunostained with mouse anti-mature collagen I antibody (1:500 dilution, Sigma#C2456), anti-mouse secondary antibody Alexa647 (1:500 dilution, Invitrogen#A21236) and Hoechst (for nuclei, 2 μg/ml, Invitrogen#H3596). Fluorescent image acquisition was done using the Operetta High Content Imaging system (Perkin Elmer). For each image field, the intensity of mature collagen staining was normalized with the number of nuclei. Normalized collagen levels were used to calculate the potency of test compounds with Graphpad Prism software, as described above.

| SMILES | IC50 [1] [nM] | IC50 [2] [nM] |
| --- | --- | --- |
| CCCCC[C@@H](C(=O)NCNC(=O)c1ccc(-c2cc(O)cc(C(=O)O)c2)o1)[C@@H](CC)N(O)C=O [Example 112, 3-hydroxy-5-(5-((((R)-2((R)-1-(N-hydroxyformamido)propyl)heptanamido)methyl)carbamoyl)furan-2-yl)benzoic acid] | < 3980 | < 1000 |
| CCCCC[C@@H](C(=O)NCNC(=O)c1ccc(-c2cc(OCC(=O)O)cc(C(=O)O)c2)o1)[C@@H](CC)N(O)C=O [Example 113, 3-(carboxymethoxy)-5-(5-((((R)-2-((R)-1-(N-hydroxformamido)propyl)heptanamido)methyl)carbamoyl)furan-2-yl)benzoic acid] | < 3980 | < 1000 |
| CCCCC[C@@H](C(=O)NCNC(=O)c1ccc(-c2cc(OCC(=O)O)cc(C(=O)O)c2O)o1)[C@@H](CC)N(O)C=O [Example 121, 5-(carboxymethoxy)-2-hydroxy-3-(5-((((R)-2-((R)-1-(N-hydroxyformamido)propyl)heptanamido)methyl)carbamoyl)furan-2-yl)benzoic acid] | < 3980 | < 1000 |
| CCOc1cc(C(=O)N(CC(=O)O)CC(=O)O)cc(-c2ccc(C(=O)NCNC(=O)[C@H](CCc3ccc(F)cc3F)[C@@H](CC)N(O)C=O)o2)c1 [Example 122, 2,2′-((3-(5-((((2R,3R)-2-(2,4-difluorophenethyl)-3-(N-hydroxyformamido)pentanamido)methyl)carbamoyl)furan-2-yl)-5-ethoxybenzoyl)azanediyl)diacetic acid] | < 3980 | < 1000 |
| CCOc1cc(-c2ccc(C(=O)NCNC(=O)[C@H](CCc3ccc(F)cc3F)[C@@H](CC)N(O)C=O)o2)ccc1C(=O)N[C@@H](CC(=O)O)C(=O)O [Example 123, (S)-2-(4-(5-((((2R,3R)-2-(2,4-difluorophenethyl)-3-(N-hydroxyformamido)pentanamido)methyl)carbamoyl)furan-2-yl)-2-ethoxybenzamido) succinic acid] | < 3980 | < 1000 |
| CCOc1cc(-c2ccc(C(=O)NCNC(=O)[C@H](CCc3ccccc3)[C@@H](CC)N(O)C=O)o2)ccc1C(=O)N(CC(=O)O)CC(=O)O [Example 124, 2,2′-((2-ethoxy-4-(5-((((2R,3R)-3-(N-hydroxyformamido)-2-phenethylpentanamido)methyl)carbamoyl)furan-2-yl)benzoyl)azanediyl) diacetic acid] | < 3980 | < 1000 |
| CCCCC[C@@H](C(=O)NCNC(=O)c1ccc(-c2ccc(C(=O)N[C@@H](CC(=O)O)C(=O)O)c(OCC(=O)O)c2)o1)[C@@H](CC)N(O)C=O [Example 126, (S)-2-(2-(carboxymethoxy)-4-(5-((((R)-2-((R)-1-(N-hydroxyformamido)propyl)heptanamido)methyl)carbamoyl)furan-2-yl)benzamido) succinic acid] | < 3980 | < 1000 |
| CCOc1cc(-c2ccc(C(=O)NCNC(=O)[C@H](CCc3ccccc3)[C@@H](CC)N(O)C=O)o2)ccc1C(=O)N[C@@H](CC(=O)O)C(=O)O [Example 127, (S)-2-(2-ethoxy-4-(5-((((2R,3R)-3-(N-hydroxyformamido)-2-phenethylpentanamido)methyl)carbamoyl)furan-2-yl)benzamido) succinic acid] | < 3980 | < 1000 |
| CCCCC[C@@H](C(=O)NCNC(=O)c1ccc(-c2cc(O)c(C(=O)O)c(OCC)c2)o1)[C@@H](CC)N(O)C=O [Example 128, 2-ethoxy-6-hydroxy-4-(5-((((R)-2-((R)-1-(N-hydroxyformamido)propyl)heptanamido)methyl)carbamoyl)furan-2-yl)benzoic acid] | < 3980 | < 1000 |
| CCCCC[C@@H](C(=O)NCNC(=O)c1ccc(-c2ccc(C(=O)N[C@H](CC(=O)O)C(=O)O)c(OCC)c2)o1)[C@@H](CC)N(O)C=O [Example 132, (R)-2-(2-ethoxy-4-(5-((((R)-2-((R)-1-(N-hydroxyformamido)propyl)heptanamido)methyl)carbamoyl)furan-2-yl)benzamido) succinic acid] | < 3980 | < 1000 |
| CCCCC[C@@H](C(=O)NCNC(=O)c1ccc(-c2ccc(C(=O)NCP(=O)(O)O)c(OCC)c2)o1)[C@@H](CC)N(O)C=O [Example 139, ((2-ethoxy-4-(5-((((R)-2-((R)-1-(N-hydroxyformamido)propyl)heptanamido)methyl)carbamoyl)furan-2-yl)benzamido)methyl)phosphonic acid] | < 3980 | < 1000 |

From patent publication US10450288B2, “Hydroxy formamide derivatives and their use” (GLAXOSMITHKLINE INTELLECTUAL PROPERTY (NO.2) LIMITED, priority 2014, dated 2019)
